Data: ChEMBL document CHEMBL1151757, “Synthesis, radiosynthesis, and biological evaluation of fluorine-18-labeled 2beta-carbo(fluoroalkoxy)-3beta-(3'-((Z)-2-haloethenyl)phenyl)nortropanes: candidate radioligands for in vivo imaging of the serotonin transporter with positron emission tomography” (J Med Chem, 2008)

Experiments:
[1] = Ratio of drug uptake in pons to cerebellum in anesthetized cynomolgus monkey after 215 mins postinjection; type: ADME, organism-based, Macaca fascicularis; conditions: in vivo
[2] = Ratio of drug uptake in pons to cerebellum in anesthetized cynomolgus monkey after 185 mins postinjection; type: ADME, organism-based, Macaca fascicularis; conditions: in vivo
[3] = Ratio of drug uptake in pons to cerebellum in anesthetized cynomolgus monkey after 195 mins postinjection; type: ADME, organism-based, Macaca fascicularis; conditions: in vivo, 3.25 h
[4] = Ratio of drug uptake in medulla to cerebellum in anesthetized cynomolgus monkey after 6.5 mins postinjection; type: ADME, organism-based, Macaca fascicularis; conditions: in vivo
[5] = Ratio of drug uptake in medulla to cerebellum in anesthetized cynomolgus monkey after 85 mins postinjection; type: ADME, organism-based, Macaca fascicularis; conditions: in vivo
[6] = Drug uptake in anesthetized cynomolgus monkey brain occipital lobe after 9.5 mins postinjection; type: ADME, organism-based, Macaca fascicularis; conditions: in vivo
[7] = Drug uptake in anesthetized cynomolgus monkey brain occipital lobe after 105 mins postinjection; type: ADME, organism-based, Macaca fascicularis; conditions: in vivo, 1.75 h
[8] = Drug uptake in anesthetized cynomolgus monkey brain occipital lobe after 115 mins postinjection; type: ADME, organism-based, Macaca fascicularis; conditions: in vivo
[9] = Drug uptake in anesthetized cynomolgus monkey brain frontal lobe after 15.5 mins postinjection; type: ADME, organism-based, Macaca fascicularis; conditions: in vivo
[10] = Drug uptake in anesthetized cynomolgus monkey brain frontal lobe after 45 mins postinjection; type: ADME, organism-based, Macaca fascicularis; conditions: in vivo, 0.75 h
[11] = Drug uptake in anesthetized cynomolgus monkey brain frontal lobe after 225 mins postinjection; type: ADME, organism-based, Macaca fascicularis; conditions: in vivo, 3.75 h
[12] = Drug uptake in anesthetized cynomolgus monkey brain frontal lobe after 235 mins postinjection; type: ADME, organism-based, Macaca fascicularis; conditions: in vivo
[13] = Ratio of drug uptake in midbrain to cerebellum in anesthetized cynomolgus monkey after 235 mins postinjection; type: ADME, organism-based, Macaca fascicularis; conditions: in vivo
[14] = Ratio of drug uptake in pons to cerebellum in anesthetized cynomolgus monkey after 1.5 mins postinjection; type: ADME, organism-based, Macaca fascicularis; conditions: in vivo, 0.025 h
[15] = Ratio of drug uptake in occipital lobe to cerebellum in anesthetized cynomolgus monkey after 115 mins postinjection; type: ADME, organism-based, Macaca fascicularis; conditions: in vivo
[16] = Ratio of drug uptake in occipital lobe to cerebellum in anesthetized cynomolgus monkey after 125 mins postinjection; type: ADME, organism-based, Macaca fascicularis; conditions: in vivo
Putamen [17] = assay: Drug uptake in anesthetized cynomolgus monkey brain putamen after 115 mins postinjection; type: ADME, organism-based, Macaca fascicularis; parameters: unit not given here; conditions: in vivo
Putamen [18] = assay: Drug uptake in anesthetized cynomolgus monkey brain putamen after 125 mins postinjection; type: ADME, organism-based, Macaca fascicularis; conditions: in vivo
Putamen [19] = assay: Drug uptake in anesthetized cynomolgus monkey brain putamen after 165 mins postinjection; type: ADME, organism-based, Macaca fascicularis; conditions: in vivo, 2.75 h
Pons [20] = assay: Drug uptake in anesthetized cynomolgus monkey brain pons after 3.5 mins postinjection; type: ADME, organism-based, Macaca fascicularis; conditions: in vivo
Pons [21] = assay: Drug uptake in anesthetized cynomolgus monkey brain pons after 12.5 mins postinjection; type: ADME, organism-based, Macaca fascicularis; conditions: in vivo
Pons [22] = assay: Drug uptake in anesthetized cynomolgus monkey brain pons after 22.5 mins postinjection; type: ADME, organism-based, Macaca fascicularis; conditions: in vivo, 0.375 h
Medulla [23] = assay: Drug uptake in anesthetized cynomolgus monkey brain medulla after 195 mins postinjection; type: ADME, organism-based, Macaca fascicularis; conditions: in vivo, 3.25 h
[24] = Drug uptake in anesthetized cynomolgus monkey brain frontal lobe after 185 mins postinjection; type: ADME, organism-based, Macaca fascicularis; conditions: in vivo
Pons [25] = assay: Drug uptake in anesthetized cynomolgus monkey brain pons after 145 mins postinjection; type: ADME, organism-based, Macaca fascicularis; conditions: in vivo
Medulla [26] = assay: Drug uptake in anesthetized cynomolgus monkey brain medulla after 18.5 mins postinjection; type: ADME, organism-based, Macaca fascicularis; conditions: in vivo
Medulla [27] = assay: Drug uptake in anesthetized cynomolgus monkey brain medulla after 35 mins postinjection; type: ADME, organism-based, Macaca fascicularis; conditions: in vivo
[28] = Ratio of drug uptake in caudate to cerebellum in anesthetized cynomolgus monkey after 225 mins postinjection; type: ADME, organism-based, Macaca fascicularis; conditions: in vivo, 3.75 h
[29] = Ratio of drug uptake in putamen to cerebellum in anesthetized cynomolgus monkey after 3.5 mins postinjection; type: ADME, organism-based, Macaca fascicularis; conditions: in vivo
Medulla [30] = assay: Drug uptake in anesthetized cynomolgus monkey brain medulla after 125 mins postinjection; type: ADME, organism-based, Macaca fascicularis; conditions: in vivo
Medulla [31] = assay: Drug uptake in anesthetized cynomolgus monkey brain medulla after 155 mins postinjection; type: ADME, organism-based, Macaca fascicularis; conditions: in vivo
[32] = Ratio of drug uptake in putamen to cerebellum in anesthetized cynomolgus monkey after 155 mins postinjection; type: ADME, organism-based, Macaca fascicularis; conditions: in vivo
[33] = Drug uptake in anesthetized cynomolgus monkey brain cerebellum after 2.5 mins postinjection; type: ADME, organism-based, Macaca fascicularis; conditions: in vivo
[34] = Drug uptake in anesthetized cynomolgus monkey brain cerebellum after 75 mins postinjection; type: ADME, organism-based, Macaca fascicularis; conditions: in vivo, 1.25 h
[35] = Ratio of drug uptake in thalamus to cerebellum in anesthetized cynomolgus monkey after 205 mins postinjection; type: ADME, organism-based, Macaca fascicularis; conditions: in vivo
Caudate [36] = assay: Drug uptake in anesthetized cynomolgus monkey brain caudate after 0.5 mins postinjection; type: ADME, organism-based, Macaca fascicularis, Caudate nucleus; conditions: in vivo
Caudate [37] = assay: Drug uptake in anesthetized cynomolgus monkey brain caudate after 4.5 mins postinjection; type: ADME, organism-based, Macaca fascicularis, Caudate nucleus; conditions: in vivo, 0.075 h
Caudate [38] = assay: Drug uptake in anesthetized cynomolgus monkey brain caudate after 125 mins postinjection; type: ADME, organism-based, Macaca fascicularis, Caudate nucleus; conditions: in vivo
Caudate [39] = assay: Drug uptake in anesthetized cynomolgus monkey brain caudate after 175 mins postinjection; type: ADME, organism-based, Macaca fascicularis, Caudate nucleus; conditions: in vivo
[40] = Ratio of drug uptake in occipital lobe to cerebellum in anesthetized cynomolgus monkey after 12.5 mins postinjection; type: ADME, organism-based, Macaca fascicularis; conditions: in vivo
Putamen [41] = assay: Drug uptake in anesthetized cynomolgus monkey brain putamen after 45 mins postinjection; type: ADME, organism-based, Macaca fascicularis; parameters: unit not given here; conditions: in vivo, 0.75 h
Thalamus [42] = assay: Drug uptake in anesthetized cynomolgus monkey brain thalamus after 95 mins postinjection; type: ADME, organism-based, Macaca fascicularis; parameters: unit not given here; conditions: in vivo
Thalamus [43] = assay: Drug uptake in anesthetized cynomolgus monkey brain thalamus after 155 mins postinjection; type: ADME, organism-based, Macaca fascicularis; parameters: unit not given here; conditions: in vivo
Thalamus [44] = assay: Drug uptake in anesthetized cynomolgus monkey brain thalamus after 175 mins postinjection; type: ADME, organism-based, Macaca fascicularis; parameters: unit not given here; conditions: in vivo
Midbrain [45] = assay: Drug uptake in anesthetized cynomolgus monkey brain midbrain after 4.5 mins postinjection; type: ADME, organism-based, Macaca fascicularis; parameters: unit not given here; conditions: in vivo, 0.075 h
Midbrain [46] = assay: Drug uptake in anesthetized cynomolgus monkey brain midbrain after 6.5 mins postinjection; type: ADME, organism-based, Macaca fascicularis; parameters: unit not given here; conditions: in vivo
Midbrain [47] = assay: Drug uptake in anesthetized cynomolgus monkey brain midbrain after 65 mins postinjection; type: ADME, organism-based, Macaca fascicularis; parameters: unit not given here; conditions: in vivo
Midbrain [48] = assay: Drug uptake in anesthetized cynomolgus monkey brain midbrain after 125 mins postinjection; type: ADME, organism-based, Macaca fascicularis; parameters: unit not given here; conditions: in vivo

O=C(OCC[18F])C1C2CCC(CC1c1cccc(/C=C\Br)c1)N2 (stereo not drawn)
Ratio [1]: 1.8
Ratio [2]: 1.9
Ratio [3]: 2
Ratio [4]: 1.3
Ratio [5]: 1.5
Drug uptake [6]: 2.66
Drug uptake [7]: 3.15
Drug uptake [8]: 3.02
Drug uptake [9]: 2.38
Drug uptake [10]: 2.85
Drug uptake [11]: 1.88
Drug uptake [12]: 1.87
Ratio [13]: 2.3
Ratio [14]: 1.6
Ratio [15]: 1.1
Ratio [16]: 1.1
Drug uptake (Putamen [17]): 4.68
Drug uptake (Putamen [18]): 4.59
Drug uptake (Putamen [19]): 3.92
Drug uptake (Pons [20]): 0.82
Drug uptake (Pons [21]): 3.52
Drug uptake (Pons [22]): 3.81
Drug uptake (Medulla [23]): 3.34
Drug uptake [24]: 2.29
Drug uptake (Pons [25]): 4.16
Drug uptake (Medulla [26]): 4.39
Drug uptake (Medulla [27]): 4.97
Ratio [28]: 1.8
Ratio [29]: 0.9
Drug uptake (Medulla [30]): 4.14
Drug uptake (Medulla [31]): 3.83
Ratio [32]: 1.8
Drug uptake [33]: 0.42
Drug uptake [34]: 3.3
Ratio [35]: 1.8
Drug uptake (Caudate [36]): 0
Drug uptake (Caudate [37]): 1.12
Drug uptake (Caudate [38]): 3.75
Drug uptake (Caudate [39]): 3.29
Ratio [40]: 0.8
Drug uptake (Putamen [41]): 4.94
Drug uptake (Thalamus [42]): 4.31
Drug uptake (Thalamus [43]): 3.64
Drug uptake (Thalamus [44]): 3.36
Drug uptake (Midbrain [45]): 1.76
Drug uptake (Midbrain [46]): 2.99
Drug uptake (Midbrain [47]): 5
Drug uptake (Midbrain [48]): 4.73
